Biological target: human Cat S (Homo sapiens, UniProt P25774)
Assay: Cathepsin enzyme inhibition assay (fluorogenic peptide substrate cleavage)
Assay type: biochemical
Settings: human Cat S 1 nM; substrate Z-Val-Val-Arg-AMC 20 μM; pH 6.5; fluorescence over 20 minutes
Outline: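 IC50 values derived from fluorescence increase (ex 360 nm, em 465 nm) monitored for 20 minutes after substrate addition. Enzyme held at 1 nM with 20 μM Z-Val-Val-Arg-AMC, in pH 6.5 potassium phosphate buffer containing DTT, EDTA and Triton X-100.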

Sequence of human Cat S (P25774 115-331): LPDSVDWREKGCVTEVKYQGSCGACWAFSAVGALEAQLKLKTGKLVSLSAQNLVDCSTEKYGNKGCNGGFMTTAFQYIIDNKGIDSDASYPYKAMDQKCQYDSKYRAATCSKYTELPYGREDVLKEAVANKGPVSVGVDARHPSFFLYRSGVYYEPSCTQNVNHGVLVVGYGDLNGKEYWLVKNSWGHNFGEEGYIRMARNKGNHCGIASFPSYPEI

Compound	IC50 [nM]
N#CC1(NC(=O)[C@@H]2C[C@@H](S(=O)(=O)c3ccc(N4CCN(C5CC5)CC4)cc3Cl)C[C@H]2C(=O)N2CC(F)(F)C2)CC1 [Example 159, (1R,2R,4R)-4-[2-Chloro-4-(4-cyclopropyl-piperazin-1-yl)-benzenesulfonyl]-2-(3,3-difluoro-azetidine-1-carbonyl)-cyclopentanecarboxylic acid (1-cyano-cyclopropyl)-amide]	0.385
N#CC1(NC(=O)[C@@H]2C[C@@H](S(=O)(=O)c3ccccc3C(F)(F)F)C[C@H]2OC2CCS(=O)(=O)CC2)CC1 (racemic) [Example 219, (1R,2R,4R) and (1S,2S,4S)-2-[(tetrahydro-1,1-dioxo-2H-thiopyran-4-yl)oxy]-4-(2-trifluoromethyl-benzenesulfonyl)-cyclopentanecarboxylic acid (1-cyano-cyclopropyl)-amide]	6.77
CC(C)N1CCN(c2ccc(S(=O)(=O)[C@H]3C[C@@H](OC4CCCC4)[C@H](C(=O)NC4(C#N)CC4)C3)c(C(F)(F)F)c2)CC1 (racemic) [Example 229, (1R,2R,4R) and (1S,2S,4S)-2-Cyclopentyloxy-4-[4-(4-isopropyl-piperazin-1-yl)-2-trifluoromethyl-benzenesulfonyl]-cyclopentanecarboxylic acid (1-cyano-cyclopropyl)-amide]	0.007
CC(C)(C)NC(=O)[C@@H]1C[C@H](S(=O)(=O)c2ccccc2)C[C@H]1C(=O)NC1(C#N)CC1 [Example 28, (1R,2R,4S)-4-Benzenesulfonyl-cyclopentane-1,2-dicarboxylic acid 1-tert-butylamide 2-[(1-cyano-cyclopropyl)-amide]]	25.5
N#CC1(NC(=O)[C@@H]2C[C@@H](S(=O)(=O)c3ccc(-c4ccnc(Cl)c4)cc3C(F)(F)F)C[C@H]2C(=O)N2CC(F)(F)C2)CC1 [Example 122, (1R,2R,4R)-4-[4-(2-Chloro-pyridin-4-yl)-2-trifluoromethyl-benzenesulfonyl]-2-(3,3-difluoro-azetidine-1-carbonyl)-cyclopentanecarboxylic acid (1-cyano-cyclopropyl)-amide]	0.2
C[C@@H](Oc1ccc(S(=O)(=O)[C@H]2CC[C@H](C(=O)NC3(C#N)CC3)C2)c(Cl)c1)C(F)(F)F (racemic) [Example 93]	565
CCOC(=O)N1CCC(C#N)(NC(=O)[C@@H]2C[C@@H](S(=O)(=O)c3ccccc3C(F)(F)F)C[C@H]2OCc2ccc(Cl)cc2)CC1 (racemic) [Example 241, 4-{[(1R,2R,4R) and (1S,2S,4S)-2-(4-Chloro-benzyloxy)-4-(2-trifluoromethyl-benzenesulfonyl)-cyclopentanecarbonyl]-amino}-4-cyano-piperidine-1-carboxylic acid ethyl ester]	12
CO[C@@H]1C[C@H](S(=O)(=O)c2ccc(-c3ccc(F)cc3F)cc2C(F)(F)F)C[C@H]1C(=O)NC1(C#N)CC1 (racemic) [Example 62, (1R,2R,4R) and (1S,2S,4S)-4-(2′,4′-Difluoro-3-trifluoromethyl-biphenyl-4-sulfonyl)-2-methoxy-cyclopentanecarboxylic acid (1-cyano-cyclopropyl)-amide]	1.4
Cc1ccc(S(=O)(=O)C2C[C@@H](C(=O)NC3(C#N)CC3)[C@H](C(=O)N3CCC(F)(F)C3)C2)nn1 (mixture of isomers) [Example 224, (1R,2R,4S)-2-(3,3-Difluoro-pyrrolidine-1-carbonyl)-4-(6-methyl-pyridazine-3-sulfonyl)-cyclopentanecarboxylic acid (1-cyano-cyclopropyl)-amide and (1R,2R,4R)-2-(3,3-Difluoro-pyrrolidine-1-carbonyl)-4-(6-methyl-pyridazine-3-sulfonyl)-cyclopentanecarboxylic acid (1-cyano-cyclopropyl)-amide]	32
C[C@H](Oc1ccc(S(=O)(=O)[C@@H]2C[C@@H](C(=O)NC3(C#N)CC3)[C@H](C(=O)N3CC(F)(F)C3)C2)c(Cl)c1)C(F)(F)F [Example 135, (1R,2R,4R)-4-[2-Chloro-4-((S)-2,2,2-trifluoro-1-methyl-ethoxy)-benzenesulfonyl]-2-(3,3-difluoro-azetidine-1-carbonyl)-cyclopentanecarboxylic acid (1-cyano-cyclopropyl)-amide]	2.4
Cc1cc(Cl)ccc1S(=O)(=O)[C@@H]1C[C@@H](C(=O)NCC#N)[C@H](C(=O)N2C[C@@H](C)O[C@@H](C)C2)C1 [Example 32, (1R,2R,4R)-4-(4-Chloro-2-methyl-benzenesulfonyl)-2-((2S,6R)-2,6-dimethyl-morpholine-4-carbonyl)-cyclopentanecarboxylic acid cyanomethyl-amide]	0.4
N#CC1(NC(=O)[C@@H]2C[C@@H](S(=O)(=O)c3ccc(F)cc3Cl)C[C@H]2COc2ccc(F)cc2)CC1 (single isomer, unassigned) [Example 145]	1.25
N#CC1(NC(=O)[C@@H]2C[C@@H](S(=O)(=O)c3ccccc3Cl)C[C@H]2OCc2ccc(Cl)cc2C(F)(F)F)CC1 (racemic) [Example 151, (1R,2R,4R) and (1S,2S,4S)-2-(4-Chloro-2-(trifluoromethyl)benzyloxy)-4-(2-chlorophenylsulfonyl)-N-(1-cyanocyclopropyl)cyclopentanecarboxamide]	2.99
N#CCNC(=O)[C@@H]1C[C@H](S(=O)(=O)c2ccc(F)cc2Cl)C[C@H]1COc1ccc(F)cc1 (single isomer, unassigned) [Example 144]	145
CO[C@@H]1C[C@H](S(=O)(=O)c2ccc(-c3ccc(S(N)(=O)=O)cc3)cc2C(F)(F)F)C[C@H]1C(=O)NC1(C#N)CC1 (racemic) [Example 76, (1R,2R,4R) and (1S,2S,4S)-2-Methoxy-4-(4′-sulfamoyl-3-trifluoromethyl-biphenyl-4-sulfonyl)-cyclopentanecarboxylic acid (1-cyano-cyclopropyl)-amide]	0.6
CN1CCN(c2ccc(S(=O)(=O)[C@@H]3C[C@@H](C(=O)NC4(C#N)CC4)[C@H](C(=O)N4CC(F)(F)C4)C3)c(Cl)c2)CC1 [Example 158, (1R,2R,4R)-4-[2-Chloro-4-(4-methyl-piperazin-1-yl)-benzenesulfonyl]-2-(3,3-difluoro-azetidine-1-carbonyl)-cyclopentanecarboxylic acid (1-cyano-cyclopropyl)-amide]	0.63
N#CC1(NC(=O)[C@@H]2C[C@@H](S(=O)(=O)c3ccccc3C(F)(F)F)C[C@H]2Oc2ccccc2)CC1 (racemic) [Example 231, (1R,2R,4R) and (1S,2S,4S)-2-Phenoxy-4-(2-trifluoromethyl-benzenesulfonyl)-cyclopentanecarboxylic acid (1-cyano-cyclopropyl)-amide]	1.25
N#CC1(NC(=O)[C@@H]2C[C@@H](S(=O)(=O)c3ccc(N4CC(F)(F)C4)cc3Cl)C[C@H]2C(=O)N2CC(F)(F)C2)CC1 [Example 136, (1R,2R,4R)-4-[2-Chloro-4-(3,3-difluoro-azetidin-1-yl)-benzenesulfonyl]-2-(3,3-difluoro-azetidine-1-carbonyl)-cyclopentanecarboxylic acid (1-cyano-cyclopropyl)-amide]	1.3
CO[C@@H]1C[C@H](S(=O)(=O)c2ccccc2C(F)(F)F)C[C@H]1C(=O)NC1(C#N)CC1 (racemic) [Example 46, (1R,2R,4R) and (1S,2S,4S)-2-Methoxy-4-(2-trifluoromethyl-benzenesulfonyl)-cyclopentanecarboxylic acid (1-cyano-cyclopropyl)-amide]	5.8
N#CC1(NC(=O)[C@@H]2C[C@H](S(=O)(=O)c3ccccc3Cl)C[C@H]2CN2CCC(c3ccc(F)cc3)CC2)CC1 [Example 148, (1R,2R,4R)-4-(2-Chloro-benzenesulfonyl)-2-[4-(4-fluoro-phenyl)-piperidin-1-ylmethyl]-cyclopentanecarboxylic acid (1-cyano-cyclopropyl)-amide]	515
Cc1cc(-c2ccc(S(=O)(=O)[C@H]3C[C@@H](OC4CCS(=O)(=O)CC4)[C@H](C(=O)NC4(C#N)CC4)C3)c(C(F)(F)F)c2)ccn1 (racemic) [Example 183, (1R,2R,4R) and (1S,2S,4S)-2-[(tetrahydro-1,1-dioxo-2H-thiopyran-4-yl)oxy]-4-[4-(2-methyl-pyridin-4-yl)-2-trifluoromethyl-benzenesulfonyl]-cyclopentanecarboxylic acid (1-cyano-cyclopropyl)-amide]	0.2
N#CC1(NC(=O)[C@@H]2C[C@@H](S(=O)(=O)c3ccc(Br)cc3Cl)C[C@H]2C(=O)N2CCC(F)(F)C2)CC1 [Example 187, (1R,2R,4R)-4-(4-Bromo-2-chloro-benzenesulfonyl)-2-(3,3-difluoro-pyrrolidine-1-carbonyl)-cyclopentanecarboxylic acid (1-cyano-cyclopropyl)-amide]	1.07
Cn1cc(-c2ccc(S(=O)(=O)[C@H]3C[C@@H](OC4CCC4)[C@H](C(=O)NC4(C#N)CC4)C3)c(C(F)(F)F)c2)cn1 (racemic) [Example 211, (1R,2R,4R) and (1S,2S,4S)-2-Cyclobutoxy-4-[4-(1-methyl-1H-pyrazol-4-yl)-2-trifluoromethyl-benzenesulfonyl]-cyclopentanecarboxylic acid (1-cyano-cyclopropyl)-amide]	0.255
N#CCNC(=O)[C@@H]1C[C@@H](S(=O)(=O)CC2CC2)C[C@H]1C(=O)N1CCOCC1 [Example 40, (1R,2R,4R)-4-Cyclopropylmethanesulfonyl-2-(morpholine-4-carbonyl)-cyclopentanecarboxylic acid cyanomethyl-amide]	230
Cn1cc(-c2ccc(S(=O)(=O)[C@@H]3C[C@@H](C(=O)NC4(C#N)CC4)[C@H](C(=O)N4CCC(F)(F)C4)C3)c(Cl)c2)cn1 [Example 197, (1R,2R,4R)-4-[2-Chloro-4-(1-methyl-1H-pyrazol-4-yl)-benzenesulfonyl]-2-(3,3-difluoro-pyrrolidine-1-carbonyl)-cyclopentanecarboxylic acid (1-cyano-cyclopropyl)-amide]	0.14

From US20100317647A1 (priority 2009, published 2010)
